These results are taken from the pKa sets of Baltruschat and Czodrowski (2020).

The structures appear in SMILES notation.

Compound `[NH3+]c1cccc(C(=O)O)c1` registered a pKa (acidic group) of 3.09.
Regarding `COc1ccc2c3c1O[C@H]1CCC[C@H]4[C@@H](C2)N(C)CC[C@]314`, the pKa (basic group) was found to be 8.83.
Take `NC(=N\O)/C(N)=N/O`: the pKa reads like this: (acidic group) 11.3; (basic group) 2.97.
For `CNc1ncnc2[nH]ncc12`, in that order: 10.6 and 4.53.
On to `Oc1ccc2nc3ccccc3nc2c1`, for which the pKa was found to be 7.45 (acidic group) and 2.6 (basic group).
`CCCCCCCCCCCCCNCCCCCCCCCCCCC` displayed a pKa (basic group) of 11.
Still for that read-out and setting: to `CCOC(=O)CCCN` belongs 9.71; to `Cc1ccno1`, 2.3.
Still for that read-out and setting: to `NCCCCCCCCCCC(=O)[O-]` belongs 11.
As to `ON=C(c1ccccc1)c1ccccc1`, the pKa (acidic group) was found to be 11.3.
Same read-out and setting: to `Cc1cc(O)n(-c2nc(O)cc(C)[nH+]2)n1` belongs 5.23.
As for `Cc1cn(C)nc1C`, under “basic group”, the pKa is 3.56.
`Cc1cc(C2(c3ccc(O)c(C)c3)OS(=O)(=O)c3c(Br)c(Br)c(Br)c(Br)c32)ccc1O` displayed a pKa (acidic group) of 7.53.
Same read-out and setting: to `CC(=O)CC(=S)Nc1ccc(C)cc1` belongs 7.65; to `N#CC(C#N)=C(O)c1ccc(N)cc1`, 4.28.
On the same count and under the same terms, under `N#Cc1ccc(O)c(O)c1` stands 7.72; under `CC(=N\O)/C(CN(C)C)=N\[O-]`, 12.5.
Turning to `O=[N+]([O-])c1ccc2[nH]cnc2c1`, the pKa reads like this: (acidic group) 10.6; (basic group) 3.77.
In turn, `NNC(=O)c1ccc[nH+]c1` came in with a pKa (basic group) of 1.64.
Still for that read-out and setting: under `Cc1ncnc2nccnc12` stands 2.92.
Compound `CC(C)c1cccc2ccc(O)cc12` returned a pKa (acidic group) of 9.52.
Same read-out and setting: under `O=C(O)[C@@H]1CCC[NH2+]1` stands 1.94; under `CC1=NS(=O)(=O)c2ncccc2N1`, 7.58.
`[NH3+]CCC#CC#CCCC(=O)O` displayed a pKa (acidic group) of 4.12.
`NC(=S)Nc1ccc([N+](=O)[O-])cc1` displayed a pKa (acidic group) of 10.8.
For the compound `CC(C)(S)C(C(=O)[O-])n1ccnc1Cc1ccccc1` (stereo unspecified), the pKa came out at 10.5 (acidic group) and 7 (basic group).
Where the note is “acidic group”, `CC(C)C1=CC2=CC[C@H]3[C@@](C)(CCC[C@]3(C)C(=O)O)[C@@H]2CC1` yielded a pKa of 6.4.
Same read-out and setting: to `Cc1ccc(S(=O)O)cc1` belongs 1.82.
For the setting “basic group”, `Cc1ccccc1N(C)C` showed a pKa of 6.
On the same count and under the same terms, under `CNCCN` stands 10.4; under `ClCC1CN2CCC1CC2` (stereo unspecified), 10.2.
Same read-out and setting: under `Cc1nc2cc(C(=O)[O-])ccc2[nH]1` stands 6.
Consider `N#CSc1ccc(O)cc1`, for which the pKa (acidic group) turned out to be 8.57.
Still for that read-out and setting: under `CC(=O)C(C)C(=O)C(C)C` (stereo unspecified) stands 11.8.
`Nc1nccc2c1ncn2CCOCP(=O)([O-])[O-]` showed a pKa (basic group) of 7.87.
In turn, `Cc1ccccc1/C(=N/CCC[NH+](C)C)c1ccc2ccccc2c1` showed a pKa (basic group) of 4.54.
As for `CS(=O)Cc1ccccn1` (stereo unspecified), the pKa (basic group) came out at 3.1.
Still for that read-out and setting: under `Nc1cccc([NH3+])c1O` stands 2.7.
On the same count and under the same terms, under `C1CNCCNCCNC1` stands 11.7.
Compound `OB(O)Cc1ccccc1` gave a pKa (acidic group) of 9.12.
In turn, `O/N=C1\CCCCC\C1=N/O` registered a pKa (acidic group) of 10.7.
`CC(C)(CN)C[NH3+]` returned a pKa (basic group) of 7.99.
Compound `CC(C)=C(C(N)=O)C(=O)O` displayed a pKa (acidic group) of 3.95.
`Cc1ccccc1S(=O)O` displayed a pKa (acidic group) of 1.47.
`CCN(CC)/N=C(\C)N`: the pKa (basic group) worked out at 10.6.
Still for that read-out and setting: to `COc1cc2c(cc1O)CCN1Cc3c(ccc(OC)c3OC)C[C@@H]21` belongs 9.55; to `Cn1cccn1`, 2.48.
On the same count and under the same terms, to `N[C@@H]1CCC[C@H](O)C1` belongs 10.1.
In turn, `C#CC(=O)O` had a pKa (acidic group) of 1.89.
Still for that read-out and setting: to `COc1ccc(O)c([N+](=O)[O-])c1` belongs 7.39.
`NCCc1c[nH]cn1` registered a pKa (basic group) of 9.87.
Regarding `CC(C)C1CC(CC(=O)O)[NH2+]C1C(=O)O` (stereo unspecified), the pKa (acidic group) was determined as 2.1.
Compound `C[Si](C)(C)c1cccc(N)c1` gave a pKa (basic group) of 4.64.
`CN1[C@@H]2C[C@@H]3C[C@H]1[C@@H](O)[C@H]2O3` returned a pKa (basic group) of 8.2.
On the same count and under the same terms, under `CCCCCNc1ccccc1` stands 5.2.
On the same count and under the same terms, to `CSc1ccc(N)cc1I` belongs 3.44; to `CN(C)c1ccc(/N=N/c2ccccc2)cc1`, 2.85.
Take `CC1(C)NC(C)(C)[N+](O)=C1c1ccccc1`: under “acidic group”, the pKa stood at 2.06.
`CCC(=O)c1cc(C(=O)c2ccccc2)n[nH]1`: the pKa (acidic group) came out at 9.14.
In the case of `COc1ccc(Cl)c2cccnc12`, for the setting “basic group”, the pKa came to 4.13.
Turning to `Oc1c(Cl)c(Cl)cc(Cl)c1C[NH+]1CCOCC1`, the pKa (acidic group) was 4.92.
The compound `Cn1c(N)nc(=O)c2[nH]cnc21` showed a pKa (basic group) of 4.61.
Where the note is “basic group”, `CC[C@H](C)[C@H](N)C(=O)[O-]` returned a pKa of 9.77.
On to `C[N+](C)(C)CCCC(=O)O`, for which the pKa (acidic group) came to 4.02.
The compound `Cc1ccc(C)nn1` came in with a pKa (basic group) of 3.99.
Still for that read-out and setting: under `COC(=O)[C@@H]1CSCN1` stands 3.92.
On the same count and under the same terms, to `CCCCCCCCCCCCN(CCO)CC(O)CC` (stereo unspecified) belongs 6.4; to `CC(C)(N)c1ccccc1`, 10.4; to `CSc1ccc(N)c([N+](=O)[O-])c1`, -0.28.
Still for that read-out and setting: under `NC1=N[C@@H](CC(=O)[O-])C(=O)N1CCCC(N)C(=O)[O-]` (stereo partly specified) stands 9.55.
In the case of `CC(C)[NH2+]CCc1ccc(O)cc1`, for the setting “acidic group”, the pKa came out at 9.59.
Under “basic group”, `c1ccc2nnccc2c1` displayed a pKa of 2.29.
Regarding `CN1CCCCCCN(C)CCCCCC1`, the pKa (basic group) turned out to be 9.24.
`C[N+]1(CCC(=O)O)CCCCC1` came in with a pKa (acidic group) of 3.43.
The same measure, in the same setting: under `OC(c1ccccc1)(c1ccncc1)c1ccncc1` stands 13.1.
`C[C@@H]1CNC[C@H](C)[NH2+]1` had a pKa (basic group) of 5.4.
`O=C(O)c1cccc([N+](=O)[O-])c1C(=O)c1ccccc1`: the pKa (acidic group) amounted to 2.87.
With `CC(=O)N1CCc2noc(O)c2CC1`, the pKa (acidic group) came out at 4.3.
Regarding `O=C1CC[C@H]2N1CC[C@H]1c3ccccc3CCN12`, where the note is “basic group”, the pKa turned out to be 4.89.
`O/N=C(/Cc1ccccc1)NO` displayed a pKa (acidic group) of 10.7 and a pKa (basic group) of 4.25.
`Oc1ccc(O)cc1`: the pKa (acidic group) came to 9.93.
The same measure, in the same setting: under `C[NH+](C)Cc1cc([N+](=O)[O-])ccc1O` stands 5.75.
Take `COc1cc(CN)c(C)cc1N`: the pKa (basic group) came out at 9.54.
As to `Cc1[nH]nc(O)c1C(C)C`, the pKa (basic group) is 3.
Still for that read-out and setting: under `c1ccc2c(c1)CCC2N(c1ccc2ccccc2c1)C1CCc2ccccc21` (stereo unspecified) stands 0.25; under `O=C(Cc1ccccc1Nc1c(Cl)cccc1Cl)OCCCCN1CCOCC1`, 8.4.
In turn, `Cc1nonc1NS(=O)(=O)c1ccc(N)cc1` returned a pKa (acidic group) of 4.
`Cc1cccc(NCCS)c1` displayed a pKa (basic group) of 4.68.
For `Cc1cnccc1N`, the pKa (basic group) turned out to be 9.15.
Consider `CC(C)c1ccccc1C(=O)O`, for which the pKa (acidic group) turned out to be 3.64.
In turn, `CC(C)N` gave a pKa (basic group) of 10.6.
In the case of `CC(N)C(N)=O` (stereo unspecified), the pKa (acidic group) was 8.02.
Where the note is “basic group”, `C=C(C)C(=O)NC(C)CN(C)C` (stereo unspecified) had a pKa of 8.51.
In the case of `O=P([O-])(O)C([NH2+]Cc1ccncc1)c1ccccc1O` (stereo unspecified), the pKa is, setting by setting: (acidic group) 5.2; (basic group) 3.15.
`Nc1ccc2[nH]c(Cc3ccccc3)nc2c1` gave a pKa (basic group) of 6.4.
Turning to `O=C1C=CC(=NO)C=C1`, the pKa (acidic group) stood at 6.36.
Where the note is “basic group”, `CN=C1C(C)(C)c2ccccc2C1(C)C` gave a pKa of 7.
Same read-out and setting: to `Cc1ccc(C[NH3+])cc1N` belongs 4.26; to `c1ccc(Nc2ccccc2)cc1`, 0.76.
For the setting “acidic group”, `Oc1[nH+]ncc2ccccc12` displayed a pKa of -2.
In the case of `Cc1ccc(/C=C/C(=O)C(=O)O)cc1`, the pKa (acidic group) is 1.96.
In the case of `Cc1cc2nc3ccc(N(C)C)cc3nc2cc1N`, the pKa is 14.7 (acidic group) and 7.18 (basic group).
On to `CCCC(=O)OC(C)CN(C)C` (stereo unspecified), for which, where the note is “basic group”, the pKa came to 8.27.
On the same count and under the same terms, to `Cc1cccc(CN)c1` belongs 9.37.
On the same count and under the same terms, to `Cc1c[nH]c(C)c1` belongs 2.04.
Consider `Nc1ccc2c(c1)Cc1cccc(O)c1-2`, for which, where the note is “basic group”, the pKa came to 4.73.
On the same count and under the same terms, under `Nc1ccc2ccccc2c1[N+](=O)[O-]` stands -0.92; under `c1ccc(C(OCCN2CCCCC2)c2ccccc2)cc1`, 8.03.
In turn, `O=C(O)c1cc[nH]c1` displayed a pKa (acidic group) of 4.98.
Consider `CN1CCCC(C(=O)[O-])C1` (stereo unspecified), for which the pKa (basic group) came to 9.7.
On the same count and under the same terms, to `Clc1cncc(Cl)c1` belongs 0.55.
With `COc1c(O)ccc2c1C[N+]1(C)CCc3cc4c(cc3[C@@H]1C2)OCO4` (stereo partly specified), the pKa (acidic group) is 8.45.
Consider `CC(CN1CCCC(C)(C)C1)Nc1ccccn1` (stereo unspecified), for which the pKa (basic group) was 9.23.
On the same count and under the same terms, under `O=Cc1cc(-c2ccccc2)nnc1NCCN1CCOCC1` stands 6.89.
For the compound `S=C(Nc1ccc(Br)cc1)c1ccc(Cl)cc1`, the pKa (acidic group) came to 10.2.
The compound `Cc1ncnc2c1NCCN2` registered a pKa (basic group) of 6.74.
`N#C[C@H]1CCCC[C@@H]1C(=O)O`: the pKa (acidic group) worked out at 3.86.
In turn, `Nc1ncc2[nH]c[nH+]c2n1` showed a pKa (basic group) of -0.28.
Compound `CN(C)c1ccc(C2CN3CCC2CC3)cc1` (stereo unspecified) had a pKa (basic group) of 10.3.
On the same count and under the same terms, to `[O-]c1ccc([O-])nn1` belongs 13; to `O=C(CCCN1CCC(O)(c2ccccc2)CC1)c1ccccc1`, 8.4.
`C=CCOc1ccc(C(=O)O)cc1`: where the note is “acidic group”, the pKa turned out to be 4.45.
Still for that read-out and setting: to `COc1ccc(CC(=O)O)cc1` belongs 4.36.
Turning to `CCC(=O)O[C@@]1(c2ccccc2)CCN(C)C[C@H]1C`, the pKa (basic group) worked out at 8.66.
With `NS(=O)(=O)c1cc2c(cc1Cl)N=CNS2(=O)=O`, for the setting “acidic group”, the pKa was 6.7.
With `Cc1[nH+]c2cc(N)ccc2n1C`, where the note is “basic group”, the pKa is 3.38.
For the compound `CCP(=O)(O)CC`, the pKa (acidic group) was determined as 3.22.
For the compound `c1ccc2c(c1)CCCN2`, the pKa (basic group) is 4.96.
Consider `Cc1ccc(S(=O)(=O)NCC(=O)[O-])cc1`, for which, under “acidic group”, the pKa was 11.4.
`NCCc1ccncc1` came in with a pKa (basic group) of 9.37.
Compound `CNNC1CCN(C)CC1` showed a pKa (basic group) of 8.7.
Consider `Clc1ccccc1-c1nnn[nH]1`, for which the pKa (acidic group) was 3.69.
With `O=C([O-])c1cc2cc(Cn3ccnc3)ccc2o1`, for the setting “basic group”, the pKa was 7.17.
As for `Cn1c(-c2ccccc2[O-])nc2ccccc21`, the pKa (basic group) worked out at 8.92.
Still for that read-out and setting: under `Clc1ccc(C/C(=C\CN2CCCC2)c2ccccc2)cc1` stands 8.77; under `Nc1ccc(N)cc1`, 6.16.
Turning to `On1nnc2ccc(Br)cc21`, the pKa (acidic group) was found to be 3.97.
On the same count and under the same terms, under `OCCNC(=S)S` stands 2.82.
